The values that follow come from publication PMC11378339, “Design, synthesis, and in vitro and in silico study of 1-benzyl-indole hybrid thiosemicarbazones as competitive tyrosinase inhibitors” (RSC Advances, 2024).

Each structure is given as a SMILES string.

Data set [1] deals with mushroom tyrosinase. As to the kind of experiment: Tyrosinase inhibition assay (96-well, L-DOPA substrate, dopachrome at 480 nm). In kind it is biochemical. As to conditions: for IC50: mean ± SEM, triplicate, substrate L-DOPA. The procedure: Using a spectrophotometer microplate reader, the 96-well plate tyrosinase inhibition experiment was performed by Masamoto et al.'s protocol.[65,66] […] Then, add 60 μL of phosphate buffer and 10 μL of mushroom tyrosinase (30 U mL^−1 in phosphate buffer) to the reaction mixture incubated for 10 min at 25 °C. Following incubation, 20 μL of substrate L-DOPA (0.5 mM) in phosphate buffer was added. The end product dopachrome formation was measured at 480 nm for continues 10 min with one min interval time using 96-well ELISA plate reader (Bio-Rad xMARK microplate spectrophotometer). All of the experiments were carried out in triplicate to account for potential mistakes, and the mean findings were reported in SEM. All of the in vitro experiment results, including % inhibition and IC50 values, were examined using EZ-Fit, an enzyme kinetics tool that fits curves (Perrella Scientific Inc., Amherst, USA).
The % inhibition was computed using the formula provided below.1 [drawing 39]
EZ-FIT (Perrella Scientific, Inc., USA) was used to calculate each tested compound's IC50 value. All the experiments were performed in triplicate to reduce predicted errors, and differences in the outcomes are expressed as Standard Error of Mean values (SEM).2 [drawing 40]

Data set [2] deals with mushroom tyrosinase. As to the kind of experiment: Kinetic analysis of tyrosinase inhibition (Lineweaver-Burk, Dixon plot). The format is biochemical. As to conditions: substrate L-Dopa 0.1-0.8 mM. On the procedure:
Four distinct doses of the substrate L-Dopa 0.1, 0.2, 0.4, and 0.8 mM were used in the kinetic analysis. The in vitro mechanistic study was carried out by following a similar inhibitory procedure with a similar experimental temperature and time period. […]

For the molecule `COc1cccc(NC(=S)N/N=C/c2cn(Cc3ccccc3)c3ccccc23)c1` [Compound 5l, (E)-2-[(1-benzyl-1H-indol-3-yl)methylene]-N-(3-methoxyphenyl)hydrazinecarbothioamide], in the data set on mushroom tyrosinase [1], the “Percent inhibition (0.5 mM)” value is on record as 84.39% and the IC50 turned out to be 31.6 ± 1.26 µM.
In the same order, the values of `Cc1cccc(C)c1NC(=S)N/N=C/c1cn(Cc2ccccc2)c2ccccc12` [Compound 5c, (E)-2-[(1-benzyl-1H-indol-3-yl)methylene]-N-(2,6-dimethylphenyl)hydrazinecarbo thioamide] are 85.66% and 27.4 ± 0.6 µM.
In the case of `S=C(NCc1ccc(Cl)cc1)N/N=C/c1cn(Cc2ccccc2)c2ccccc12` [Compound 5e, (E)-2-[(1-benzyl-1H-indol-3-yl)methylene]-N-(4-chlorobenzyl)hydrazinecarbothioamide], the melting point was in the range of 225 to 227 °C. In addition, in the data set on mushroom tyrosinase [1], the “Percent inhibition (0.5 mM)” value is reported as 84.73% and the half-maximal inhibitory concentration (IC50) stood at 33.6 ± 1.1 µM.
On to `O=[N+]([O-])c1cccc(NC(=S)N/N=C/c2cn(Cc3ccccc3)c3ccccc23)c1` [Compound 5o, (E)-2-[(1-benzyl-1H-indol-3-yl)methylene]-N-(3-nitrophenyl)hydrazinecarbothioamide], for which, in the data set on mushroom tyrosinase [1], the “Percent inhibition (0.5 mM)” value is on record as 91.34% and 17.1 ± 0.28 µM corresponded to half-maximal inhibition (IC50).
Take `Cc1ccc(CNC(=S)N/N=C/c2cn(Cc3ccccc3)c3ccccc23)cc1` [Compound 5k, (E)-2-[(1-benzyl-1H-indol-3-yl)methylene]-N-(4-methylbenzyl)hydrazinecarbothioamide]: the melting point is 223 to 225 °C. In the data set on mushroom tyrosinase [1], the “Percent inhibition (0.5 mM)” value turned out to be 90.84% and the IC50 is 12.4 ± 0.26 µM. For the same molecule, at mushroom tyrosinase [2], affinity was put at a Ki of 10.2 ± 0.006 µM and the type of inhibition result is recorded as “competitive”.
Regarding `COc1ccc(NC(=S)N/N=C/c2cn(Cc3ccccc3)c3ccccc23)cc1` [Compound 5a, (E)-2-[(1-benzyl-1H-indol-3-yl)methylene]-N-(4-methoxyphenyl)hydrazinecarbothioamide], in the data set on mushroom tyrosinase [1], the “Percent inhibition (0.5 mM)” value is 87.15% and the IC50 is 24.2 ± 0.38 µM.
As to `S=C(NCc1ccccc1)N/N=C/c1cn(Cc2ccccc2)c2ccccc12` [Compound 5i, (E)-N-benzyl-2-[(1-benzyl-1H-indol-3-yl)methylene]hydrazinecarbothioamide], the melting point was in the range of 193 to 195 °C. In addition, in the data set on mushroom tyrosinase [1], the “Percent inhibition (0.5 mM)” value is 82.71% and the IC50 amounted to 36.7 ± 1.48 µM.
Take `S=C(N/N=C/c1cn(Cc2ccccc2)c2ccccc12)Nc1ccccc1` [Compound 5g, (E)-2-[(1-benzyl-1H-indol-3-yl)methylene]-N-phenylhydrazinecarbothioamide]: in the data set with mushroom tyrosinase [1], the “Percent inhibition (0.5 mM)” value is 81.47% and the IC50 worked out at 38.3 ± 1.34 µM.
Consider `Cc1cc(C)cc(NC(=S)N/N=C/c2cn(Cc3ccccc3)c3ccccc23)c1` [Compound 5m, (E)-2-[(1-benzyl-1H-indol-3-yl)methylene]-N-(3,5-dimethylphenyl)hydrazine carbo thioamide], for which the melting point was in the range of 221 to 223 °C. For the same molecule, in the data set on mushroom tyrosinase [1], the “Percent inhibition (0.5 mM)” value came to 76.35% and the half-inhibitory concentration (IC50) was determined as 47.2 ± 1.27 µM.
As to `S=C(N/N=C/c1cn(Cc2ccccc2)c2ccccc12)Nc1cccc(Cl)c1Cl` [Compound 5f, (E)-2-[(1-benzyl-1H-indol-3-yl)methylene]-N-(2,3-dichlorophenyl)hydrazinecarbo thioamide], the melting point was in the range of 213 to 215 °C. Besides, in the data set with mushroom tyrosinase [1], the “Percent inhibition (0.5 mM)” value amounted to 90.83% and 15.3 ± 0.37 µM corresponded to half-maximal inhibition (IC50).
`CNC(=S)N/N=C/c1cn(Cc2ccccc2)c2ccccc12` [Compound 5p, (E)-2-[(1-benzyl-1H-indol-3-yl)methylene]-N-methylhydrazinecarbothioamide]: the melting point lay within 220 to 221 °C. Moreover, in the data set with mushroom tyrosinase [1], the “Percent inhibition (0.5 mM)” value is recorded as 46.20%.
`O=[N+]([O-])c1ccc(NC(=S)N/N=C/c2cn(Cc3ccccc3)c3ccccc23)cc1` [Compound 5q, (E)-2-[(1-benzyl-1H-indol-3-yl)methylene]-N-(4-nitrophenyl)hydrazinecarbothioamide] registered a melting point of 223 to 225 °C. In addition, in the data set with mushroom tyrosinase [1], the “Percent inhibition (0.5 mM)” value came to 91.53% and the half-maximal inhibitory concentration (IC50) came out at 15.3 ± 0.3 µM.
Take `S=C(N/N=C/c1cn(Cc2ccccc2)c2ccccc12)Nc1ccc(Br)cc1` [Compound 5j, (E)-2-[(1-benzyl-1H-indol-3-yl)methylene]-N-(4-bromophenyl)hydrazinecarbothioamide]: in the data set with mushroom tyrosinase [1], the “Percent inhibition (0.5 mM)” value was 84.19% and inhibition was half-maximal at 26.8 ± 0.29 µM (IC50).
The molecule `S=C(NCCc1ccccc1)N/N=C/c1cn(Cc2ccccc2)c2ccccc12` [Compound 5b, (E)-2-[(1-benzyl-1H-indol-3-yl)methylene]-N-phenethylhydrazinecarbothioamide] returned a melting point of 198 to 201 °C. Moreover, in the data set on mushroom tyrosinase [1], the “Percent inhibition (0.5 mM)” value came out at 78.35% and inhibition was half-maximal at 45.4 ± 0.75 µM (IC50).
In the case of `Fc1ccc(NC(=S)N/N=C/c2cn(Cc3ccccc3)c3ccccc23)cc1` [Compound 5d, (E)-2-[(1-benzyl-1H-indol-3-yl)methylene]-N-(4-fluorophenyl)hydrazinecarbothioamide], in the data set on mushroom tyrosinase [1], the “Percent inhibition (0.5 mM)” value is reported as 90.47% and the midpoint of inhibition, the IC50, lay at 16.8 ± 0.38 µM.
Molecule `Cc1ccc(NC(=S)N/N=C/c2cn(Cc3ccccc3)c3ccccc23)cc1` [Compound 5n, (E)-2-[(1-benzyl-1H-indol-3-yl)methylene]-N-(p-tolyl)hydrazinecarbothioamide] registered a melting point of 221 to 223 °C. For the same molecule, in the data set with mushroom tyrosinase [1], the “Percent inhibition (0.5 mM)” value turned out to be 86.54% and the IC50 was found to be 26.1 ± 0.47 µM.
Regarding `Cc1ccc(NC(=S)N/N=C/c2cn(Cc3ccccc3)c3ccccc23)c(C)c1` [Compound 5h, (E)-2-[(1-benzyl-1H-indol-3-yl)methylene]-N-(2,4-dimethylphenyl)hydrazinecarbo thioamide], the melting point lay in the range of 180 to 182 °C. Further, in the data set with mushroom tyrosinase [1], the “Percent inhibition (0.5 mM)” value stood at 83.76% and the 50% inhibitory concentration (IC50) came out at 29.7 ± 0.72 µM.
Turning to `S=C(N/N=C/c1cn(Cc2ccccc2)c2ccccc12)Nc1cccc2ccccc12` [Compound 5r, (E)-2-[(1-benzyl-1H-indol-3-yl)methylene]-N-(naphthalen-1-yl)hydrazinecarbothioamide], the melting point fell in the range of 199 to 201 °C. Besides, in the data set with mushroom tyrosinase [1], the “Percent inhibition (0.5 mM)” value is given as 77.86% and half-maximal inhibition (IC50) required 34.6 ± 0.81 µM.
